Reference: ChEMBL document CHEMBL5365471, “Discovery of marine phidianidine-based Nrf2 activators and their potential against oxLDL- and HG-induced injury in HUVECs” (Bioorg Med Chem Lett, 2023)
The source made the active and inactive calls. No cut-off for these calls is given here.

What was measured:
[1] = biological target: T1, Nuclear factor erythroid 2-related factor 2 (Homo sapiens) (UniProt Q16236); experiment: Induction of Nrf2/ARE activation in human Hela cells at 1 uM measured after 12 to 24 hrs by luciferase reporter gene assay relative to control; type: cell-based; settings: filed as activator, time 12-24 hrs
T1 sequence (whole entry): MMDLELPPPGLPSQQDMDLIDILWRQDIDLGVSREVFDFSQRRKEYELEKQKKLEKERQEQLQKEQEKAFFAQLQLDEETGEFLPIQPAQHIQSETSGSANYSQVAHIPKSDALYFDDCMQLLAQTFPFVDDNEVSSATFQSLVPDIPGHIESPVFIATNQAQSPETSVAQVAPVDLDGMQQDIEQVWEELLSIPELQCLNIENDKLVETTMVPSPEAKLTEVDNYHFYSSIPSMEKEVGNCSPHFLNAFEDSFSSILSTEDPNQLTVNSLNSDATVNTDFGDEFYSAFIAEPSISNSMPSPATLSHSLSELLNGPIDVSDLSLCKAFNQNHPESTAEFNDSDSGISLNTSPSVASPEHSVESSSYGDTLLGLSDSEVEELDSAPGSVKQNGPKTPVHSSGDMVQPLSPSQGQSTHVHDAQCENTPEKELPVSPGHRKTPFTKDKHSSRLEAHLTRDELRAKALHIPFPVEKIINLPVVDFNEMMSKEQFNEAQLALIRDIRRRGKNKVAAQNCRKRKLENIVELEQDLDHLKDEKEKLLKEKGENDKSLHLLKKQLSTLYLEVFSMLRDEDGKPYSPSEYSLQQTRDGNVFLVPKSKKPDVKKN

[2] = biological target: T1, Nuclear factor erythroid 2-related factor 2 (Homo sapiens); experiment: Induction of Nrf2/ARE activation in human Hela cells at 5 uM measured after 12 to 24 hrs by luciferase reporter gene assay relative to control; type: cell-based; settings: filed as activator, time 12-24 hrs
[3] = biological target: T1, Nuclear factor erythroid 2-related factor 2 (Homo sapiens); experiment: Induction of Nrf2/ARE activation in human Hela cells at 10 uM measured after 12 to 24 hrs by luciferase reporter gene assay relative to control; type: cell-based; settings: filed as activator, time 12-24 hrs
[4] = biological target: T1, Nuclear factor erythroid 2-related factor 2 (Homo sapiens); experiment: Induction of Nrf2/ARE activation in human Hela cells at 20 uM measured after 12 to 24 hrs by luciferase reporter gene assay relative to control; type: cell-based; settings: filed as activator, time 12-24 hrs
HUVEC [5] = experiment: Cytoprotective activity against oxLDL-induced HUVEC cell damage assessed as increase in cell viability at 10 uM by SRB assay; type: functional, cell-based; settings: Homo sapiens
HUVEC [6] = experiment: Cytotoxicity against HUVEC assessed as effect on cell viability by SRB assay; type: toxicity, cell-based; settings: human
HUVEC [7] = experiment: Cytoprotective activity against high glucose-induced HUVEC cell damage assessed as increase in cell viability at 10 uM by SRB assay; type: functional, cell-based; settings: Homo sapiens
HUVEC [8] = experiment: Cytoprotective activity against oxLDL-induced apoptosis in HUVEC cells measured after 6 hrs by TUNEL assay; type: functional, cell-based; settings: Homo sapiens, dose 5-10 µM
[9] = biological target: T1, Nuclear factor erythroid 2-related factor 2 (Homo sapiens); experiment: Induction of Nrf2 nuclear translocation in oxLDL-induced HUVEC cells at 5 to 10 uM measured after 6 hrs by immunofluorescence staining analysis; type: cell-based; settings: filed as activator, dose 5-10 µM
[10] = biological target: T1, Nuclear factor erythroid 2-related factor 2 (Homo sapiens); experiment: Induction of Nrf2 nuclear translocation in high glucose-induced HUVEC cells at 5 to 10 uM measured after 24 hrs by immunofluorescence staining analysis; type: cell-based; settings: filed as activator, dose 5-10 µM
HUVEC [11] = experiment: Cytoprotective activity against high glucose-induced apoptosis in HUVEC cells measured after 24 hrs by TUNEL assay; type: functional, cell-based; settings: Homo sapiens, dose 5-10 µM

Row | Structure (SMILES) | fold change (FC) [1] | fold change (FC) [2] | fold change (FC) [3] | fold change (FC) [4] | Activity [9] | Activity [10] | Activity (HUVEC [5]) | Activity (HUVEC [6]) | Activity (HUVEC [7]) | Activity (HUVEC [8]) | Activity (HUVEC [11])
1 | COc1cccc(CN2CCN(Cc3noc(Cc4c[nH]c5ccccc45)n3)CC2)c1 | 1.15 | 1.12 | 1.43 | 1.47 | – | – | – | – | – | – | –
2 | COc1cc(/C=C/C(=O)N2CCN(Cc3noc(Cc4c[nH]c5ccccc45)n3)CC2)ccc1O | 1.29 | 2.34 | 3.12 | 3.56 | – | – | – | – | – | – | –
3 | COc1cccc(/C=C/C(=O)N2CCN(Cc3noc(Cc4c[nH]c5ccccc45)n3)CC2)c1OC | 2.15 | 3.65 | 6.91 | 6.37 | – | – | inactive | Non-Toxic | – | – | –
4 | COc1ccc(OC)c(/C=C/C(=O)N2CCN(Cc3noc(Cc4c[nH]c5ccccc45)n3)CC2)c1 | 1.12 | 1.77 | 4.35 | 3.66 | – | – | – | – | – | – | –
5 | COc1cc(/C=C/C(=O)N2CCN(Cc3noc(Cc4c[nH]c5ccccc45)n3)CC2)cc(OC)c1OC | 1.24 | 2.6 | 6.23 | 6.86 | – | – | – | – | – | – | –
6 | COc1cc(OC)c(OC)cc1/C=C/C(=O)N1CCN(Cc2noc(Cc3c[nH]c4ccccc34)n2)CC1 | 1.32 | 2.79 | 5.79 | 5.46 | – | – | inactive | Non-Toxic | – | – | –
7 | O=C(/C=C/c1ccc2c(c1)OCO2)N1CCN(Cc2noc(Cc3c[nH]c4ccccc34)n2)CC1 | 1.12 | 2.07 | 4.97 | 3.24 | – | – | – | – | – | – | –
8 | c1ccc(CN2CCN(Cc3noc(Cc4c[nH]c5ccccc45)n3)CC2)cc1 | 1.09 | 1.51 | 1.64 | 2.09 | – | – | – | – | – | – | –
9 | c1ccc2cc(CN3CCN(Cc4noc(Cc5c[nH]c6ccccc56)n4)CC3)ccc2c1 | 1.09 | 1.51 | 1.86 | 2.04 | – | – | – | – | – | – | –
10 | Brc1cccc(CN2CCN(Cc3noc(Cc4c[nH]c5ccccc45)n3)CC2)c1 | 1.12 | 1.25 | 1.31 | 1.54 | – | – | – | – | – | – | –
11 | Fc1cccc(CN2CCN(Cc3noc(Cc4c[nH]c5ccccc45)n3)CC2)c1 | 1.36 | 1.42 | 1.54 | 1.86 | – | – | – | – | – | – | –
12 | COc1ccc(/C=C/C(=O)N2CCN(Cc3noc(Cc4c[nH]c5ccccc45)n3)CC2)cc1OC | 1.34 | 2.93 | 5.79 | 7.22 | – | – | – | – | – | – | –
13 | COc1cc(/C=C/C(=O)N2CCN(Cc3noc(Cc4c[nH]c5ccccc45)n3)CC2)cc(OC)c1O | 1.23 | 1.87 | 2.65 | 3.08 | – | – | – | – | – | – | –
14 | CC(C)(C)c1cc(O)ccc1O | 1.17 | 1.24 | 1.98 | 2.78 | – | – | – | – | – | – | –
15 | N#Cc1ccc(CN2CCN(Cc3noc(Cc4c[nH]c5ccccc45)n3)CC2)cc1 | 1.38 | 3.14 | 5.88 | 5.18 | Active | Active | Active | Non-Toxic | Active | Dose-Dependent Effect | Dose-Dependent Effect

Further lines, with some results ahead:

Row | fold change (FC) [1] | fold change (FC) [2] | fold change (FC) [3] | fold change (FC) [4] | Activity [9] | Activity [10] | Structure (SMILES) | Activity (HUVEC [5]) | Activity (HUVEC [6]) | Activity (HUVEC [7]) | Activity (HUVEC [8]) | Activity (HUVEC [11])
16 | 1.18 | 1.25 | 1.37 | 1.4 | – | – | N#Cc1ccc(C(=O)N2CCN(Cc3noc(Cc4c[nH]c5ccccc45)n3)CC2)cc1 | – | – | – | – | –
17 | 1.23 | 2.41 | 3.12 | 4.25 | – | – | COc1ccccc1/C=C/C(=O)N1CCN(Cc2noc(Cc3c[nH]c4ccccc34)n2)CC1 | – | – | – | – | –
18 | 1.03 | 1.31 | 1.44 | 1.21 | – | – | O=C(c1ccccc1)N1CCN(Cc2noc(Cc3c[nH]c4ccccc34)n2)CC1 | – | – | – | – | –
19 | 1.41 | 2.96 | 6.92 | 7.86 | – | – | O=C(/C=C/c1ccc(O)c(O)c1)N1CCN(Cc2noc(Cc3c[nH]c4ccccc34)n2)CC1 | – | – | – | – | –
20 | 1.15 | 1.21 | 1.28 | 1.52 | – | – | O=C(c1ccc(Br)cc1)N1CCN(Cc2noc(Cc3c[nH]c4ccccc34)n2)CC1 | – | – | – | – | –
21 | 1.18 | 1.78 | 2.11 | 2.45 | – | – | Cc1ccc(CN2CCN(Cc3noc(Cc4c[nH]c5ccccc45)n3)CC2)cc1 | – | – | – | – | –
22 | 1.2 | 3.01 | 6.31 | 6.08 | – | – | O=C(/C=C/c1ccccc1O)N1CCN(Cc2noc(Cc3c[nH]c4ccccc34)n2)CC1 | – | – | – | – | –
23 | 1.52 | 3.44 | 6.25 | 5.41 | – | – | O=C(/C=C/c1ccc(O)cc1)N1CCN(Cc2noc(Cc3c[nH]c4ccccc34)n2)CC1 | inactive | Non-Toxic | – | – | –
24 | 1.05 | 1.32 | 2.57 | 2.89 | – | – | O=C(/C=C/c1ccccc1)N1CCN(Cc2noc(Cc3c[nH]c4ccccc34)n2)CC1 | – | – | – | – | –
25 | 1.11 | 2.04 | 3.15 | 3.78 | – | – | CS(=O)(=O)c1ccc(CN2CCN(Cc3noc(Cc4c[nH]c5ccccc45)n3)CC2)cc1 | – | – | – | – | –
26 | 1.45 | 1.5 | 1.52 | 1.67 | – | – | CS(=O)(=O)c1ccc(C(=O)N2CCN(Cc3noc(Cc4c[nH]c5ccccc45)n3)CC2)cc1 | – | – | – | – | –
27 | 1.34 | 3.76 | 6.64 | 7.09 | – | – | O=C(/C=C/c1ccc(Cl)c(Cl)c1)N1CCN(Cc2noc(Cc3c[nH]c4ccccc34)n2)CC1 | Active | Non-Toxic | – | – | –
28 | 1.22 | 1.65 | 1.96 | 2.07 | – | – | COc1ccc(/C=C/C(=O)N2CCN(Cc3noc(Cc4c[nH]c5ccccc45)n3)CC2)cc1 | – | – | – | – | –
29 | 1.09 | 1.89 | 2.97 | 4.07 | – | – | COc1cccc(/C=C/C(=O)N2CCN(Cc3noc(Cc4c[nH]c5ccccc45)n3)CC2)c1 | – | – | – | – | –
30 | 1.45 | 2.16 | 3.14 | 3.56 | – | – | Brc1ccc(CN2CCN(Cc3noc(Cc4c[nH]c5ccccc45)n3)CC2)cc1 | – | – | – | – | –
31 | 1.21 | 2.24 | 4.09 | 6.12 | – | – | O=C(/C=C/c1ccc(Cl)cc1)N1CCN(Cc2noc(Cc3c[nH]c4ccccc34)n2)CC1 | Active | Non-Toxic | – | – | –
32 | 2.3 | 4.71 | 7.04 | 7.21 | – | – | O=C(/C=C/c1cccc(O)c1)N1CCN(Cc2noc(Cc3c[nH]c4ccccc34)n2)CC1 | Active | Non-Toxic | – | – | –
33 | 1.31 | 1.86 | 3.97 | 2.56 | – | – | O=C(/C=C/c1cccc(Br)c1)N1CCN(Cc2noc(Cc3c[nH]c4ccccc34)n2)CC1 | inactive | Non-Toxic | – | – | –
34 | 1.04 | 1.11 | 1.23 | 1.36 | – | – | Cc1ccc(C(=O)N2CCN(Cc3noc(Cc4c[nH]c5ccccc45)n3)CC2)cc1 | – | – | – | – | –
